# Results as given in patent US8940334B2, “Pharmaceutical composition of an anthracycline” (priority 2007, dated 2015).
# Legend:
# [1] = Size and appearance of drug-loaded DC Bead microspheres by image analysis at microscope; type: physicochemical; settings: doxorubicin 25 mg drug/ml DC Bead; over loading and elution in PBS
# Experimental: Nemorubicin hydrochloride was diluted at the concentration range of from 0.1 to 2.0 mg drug/ml DC Bead™ that represent clinically applicable doses. In the following examples microspheres of 100-300 μm diameters (DC Bead™) were used. Similar results were obtained when microspheres of 300-500 μm diameters (DC Bead™) were used.
# The size and spherical shape of microspheres were analyzed after loading with nemorubicin hydrochloride and during the release of the drug up to 16 days. As comparison DC Bead™ microspheres were loaded with doxorubicin at the clinically used dosage of 25 mg drug/ml DC Bead™.
# Drug loading: DC Bead™ microspheres were conditioned in water for 10 min. Then the water was discarded and nemorubicin hydrochloride or doxorubicin was added.
# Drug release: DC™ microspheres with or without drug were incubated in Phosphate Buffer Saline (PBS) or human plasma from healthy donors up to 16 days. The size and spherical shape of DC Bead™ microspheres were measured at different time points.
# Size and appearance of nemorubicin hydrochloride-DC Bead™ microspheres during drug-loading and drug-elution were determined by a Leica DM IRB (Leica) microscope equipped by Evolution MP Color CCD Camera (Media Cybernatics). The analysis of size was performed by Image Pro Plus™ (Media Cybernatics). […] At least four field-images for samples were analyzed to support the statistical analysis.
# [2] = tested on: human mammary adenocarcinoma cells (MCF-7); test: Cytotoxicity of elution fractions from DC Bead microspheres on MCF-7 cells (ATPLite); type: cell-based; settings: MCF-7, 72 h treatment
# Experimental: (§1) The release of nemorubicin hydrochloride from DC Bead™ microspheres was evaluated in PBS and in human plasma. At the end of the loading time and at each elution point, loaded nemorubicin hydrochloride-DC Bead™ microspheres were washed by warm water and finally incubated in warm PBS or human plasma at 37° C.
# At desiderate elution time supernatant was collected carefully by syringe, avoiding beads aspiration. Then solutions were filtered by 70 μm nylon filcon filter (BD Biosciences) to avoid carry-over contamination, collected in Eppendorf tubes and finally stored at −20° C. for further analysis.
# Samples were split for: • evaluation of the cytotoxicity of nemorubicin hydrochloride and doxorubicin against tumor cells (as dose able to inhibit cell growth by 50%; IC50). • evaluation of the released amount of nemorubicin hydrochloride and doxorubicin by HPLC-MS/UV analysis (the method used is reported in Example 2). In Vitro Antitumor Activity
# The cytotoxic effect of elution fractions was investigated on human mammary adenocarcinoma cells (MCF-7, ECACC source). Cells were grown in E-MEM/Glutamax medium (Invitrogen), 10% FBS (EuroClone), and 1% Non-Essential AminoAcids (Invitrogen) and maintained at 37° C. at 5% CO2. For cytotoxicity test, cells were plated at density of 5,000 cells/well in 96-well plates (Corning) and grown for 24 h before treatment. Cells were treated for 72 h by raise dilutions of elution fractions. At the end of treatment, cells were incubated with TS substrate (ATPLite™). Plates were read for chemiluminescence (480/540 nm) by Perkin Elmer Envision™ plate reader.
# IC50 were calculated by LSW Data Analysis™ curve fitting. The IC50 value of nemorubicin hydrochloride and doxorubicin in the medium eluted from DC Bead™ microspheres was compared to that of standard nemorubicin hydrochloride or doxorubicin fresh solutions.
# [3] = Release of drug from DC Bead microspheres in human plasma; type: physicochemical; settings: 37° C.
# Experimental: The measurements of nemorubicin hydrochloride in the elution medium were carried out with HPLC-MS/UV analysis performed by Finnigan MAT/LCQ Deca XP ion trap MS equipped with ESI ion source, directly connected to a Surveyor HPLC system (Thermo Electron Corporation). HPLC-MS/UV separations were set up on Phenomenex Gemini Phenyl, 3 μm, 50×4.6 mm by Acetate Buffer:Acetonitrile 1:9. UV detection was done at 480 nm and for ESI-MS analysis a heated capillary temperature at 275° C. and spray voltage at 4 KV was applied.
# as §1
# At desiderate elution time supernatant was collected carefully by syringe, avoiding beads aspiration. Then solutions were filtered by 70 μm nylon filcon filter (BD Biosciences) to avoid carry-over contamination, collected in Eppendorf tubes and finally stored at −20° C. for further analysis. […]
# [4] = Elution efficiency from HepaSphere microspheres (HPLC-MS/UV); type: physicochemical; settings: up to 168 h
# Experimental: Nemorubicin hydrochloride (1 mg drug/ml HepaSphere™, 2.5 mg drug/ml HepaSphere™) and doxorubicin (1 mg drug/ml HepaSphere™, 2.5 mg drug/ml HepaSphere™, 25 mg drug/ml HepaSphere™) were mixed with HepaSphere™ microspheres (50-100 μm). After 20 minutes of incubation the elution efficiency of nemorubicin hydrochloride and doxorubicin was measured up to 168 h.
# At desiderate elution time, supernatant was collected carefully by syringe, avoiding beads aspiration. Then solutions were collected in Eppendorf tubes and stored at −20° C. for further analysis.
# The released amount of nemorubicin hydrochloride and doxorubicin was evaluated by HPLC-MS/UV analysis (the method used is reported in Example 2).
compound,measurement,setting,value
"COc1cccc2c1C(=O)c1c(O)c3c(c(O)c1C2=O)C[C@@](O)(C(=O)CO)C[C@@H]3O[C@H]1C[C@H](N)[C@H](O)[C@H](C)O1 [Doxorubicin, reference compound]",size range of loaded microspheres (diameter),[1],85-125 μm
same,IC50,"[2]; MCF7, 72 h, Standard (fresh drug solution)",250 nM
same,IC50,"[2]; MCF7, 72 h, fraction eluted at 72 h",140 nM
same,IC50,"[2]; MCF7, fraction eluted at 24 h",250 nM
same,IC50,"[2]; MCF7, fraction eluted at 48 h",180 nM
same,IC50,"[2]; MCF7, fraction eluted at 96 h",200 nM
same,IC50,"[2]; MCF7, fraction eluted at 120 h",450 nM
same,IC50,"[2]; MCF7, fraction eluted at 144 h",1500 nM
same,IC50,"[2]; MCF7, fraction eluted from DC Bead microspheres at 1 h",300 nM
same,total drug released,[3],2.5%
same,% total released drug,[4]; Dose 1 mg drug/ml HepaSphere (50-100 μm),7%
same,% total released drug,[4]; Dose 2.5 mg drug/ml HepaSphere (50-100 μm),4%
same,% total released drug,[4]; Dose 25 mg drug/ml HepaSphere (50-100 μm),35%
